Reference: patent publication US6943191B1, “Disubstituted lavendustin A analogs and pharmaceutical composition comprising the analogs” (The United States of America as represented by the …, priority 1998, dated 2005)

Key:
Assay type in all cases: in vivo, human
[1] = system: U251; assay: Hollow fiber assay in mice, U251; details: QD X 4, Day 4; for % T/C U251 IP: IP fibers; for % T/C U251 SC: SC fibers
Method: (§1) Compounds satisfying Formulas 1 and 2 also have been tested for in vivo activity in the hollow fiber assay. See Example 12 below for the procedure used for the in vivo tests. Each compound tested was tested against a minimum of 12 human cancer cell lines. Data is reported as % T/C (i.e., the […]) for each of the 2 compound doses against each of the cell lines with separate values calculated for the intraperitoneal and subcutaneous samples, with a target value for % T/C being about 50 or less.
(§2) Compounds were selected for further in vivo testing in standard subcutaneous xenograft models on the basis of several hollow fiber assay criteria. These criteria include: (1) a % T/C of 50 or less in 10 of the 48 possible test combinations (12 cell lines×2 sites×2 compound doses); (2) activity at a distance (intrapentoneal drug/subcutaneous culture) in a minimum of 4 of the 24 possible combinations; and/or (3) a net cell kill of 1 or more cell lines in either implant site. To simplify evaluation, a point system has been adopted which allows rapid assessment of a compound's activity. A value of 2 is assigned for each compound dose which results in a 50% or greater reduction in viable cell mass. The intraperitoneal and subcutaneous samples were scored separately so that criteria (1) and (2) could be evaluated. Compounds with a combined IP+SC score≧20, an SC score≧8, or a net cell kill of one or more cell lines were referred for xenograft testing. These criteria have been statistically validated by comparing the activity outcomes of greater than 80 randomly selected compounds in the hollow fiber assay and in the xenograft testing.
(§3) This example describes the method used for in vivo testing of mice. Human cancer cells were cultivated in polyvinylidene fluoride (PVDF) hollow fibers. A sample of each cancer cell line was implanted intraperitoneally and subcutaneously in mice. Each mouse received a total of 6 fibers, 3 intraperitoneally and 3 subcutaneously, representing 3 distinct cancer cell lines. Three mice were treated with compounds made according to the present invention at each of two test doses intraperitoneally using a QD×4 treatment schedule. […] Anticancer effects were assessed by determining viable cell mass for each of the coil line using a formazan dye (MTT) conversion assay. From this, the % TIC was calculated using the average optical density of the compound-treated samples divided by the average optical density of the vehicle controls. In addition, the net increase in cell mass was determined for each sample as samples of fiber cultures were assessed for viable cell mass on the day of implantation into mice. This allowed cytostatic and cytocidal capacities of these compounds to be assessed.

[2] = system: NCI-H23; assay: Hollow fiber assay in mice, NCI-H23; details: QD X 4, Day 4; for % T/C NCI-H23 IP: IP fibers; for % T/C NCI-H23 SC: SC fibers
Method: as §1, §2, §3

[3] = system: OVCAR-5; assay: Hollow fiber assay in mice, OVCAR-5; details: QD X 4, Day 4; for % T/C OVCAR-5 IP: IP fibers; for % T/C OVCAR-5 SC: SC fibers
Method: as §1, §2, §3

[4] = system: SW-620; assay: Hollow fiber assay in mice, SW-620; details: QD X 4, Day 4; for % T/C SW-620 IP: IP fibers; for % T/C SW-620 SC: SC fibers
Method: as §1, §2, §3

[5] = system: MDA-MB-231; assay: Hollow fiber assay in mice, MDA-MB-231; details: QD X 4, Day 4; for % T/C MDA-MB-231 IP: IP fibers; for % T/C MDA-MB-231 SC: SC fibers
Method: as §1, §2, §3

[6] = system: MDA-MB-435; assay: Hollow fiber assay in mice, MDA-MB-435; details: QD X 4, Day 4; for % T/C MDA-MB-435 IP: IP fibers; for % T/C MDA-MB-435 SC: SC fibers
Method: as §1, §2, §3

[7] = system: SF-295; assay: Hollow fiber assay in mice, SF-295; details: QD X 4, Day 4; for % T/C SF-295 IP: IP fibers; for % T/C SF-295 SC: SC fibers
Method: as §1, §2, §3

[8] = system: NCI-H522; assay: Hollow fiber assay in mice, NCI-H522; details: QD X 4, Day 4; for % T/C NCI-H522 IP: IP fibers; for % T/C NCI-H522 SC: SC fibers
Method: as §1, §2, §3

[9] = system: UACC-62; assay: Hollow fiber assay in mice, UACC-62; details: QD X 4, Day 4; for % T/C UACC-62 IP: IP fibers; for % T/C UACC-62 SC: SC fibers
Method: as §1, §2, §3

O=C(OC12CC3CC(CC(C3)C1)C2)c1ccc(NCc2cc(O)ccc2O)cc1 [Compound 6, 4′-adamantylbenzoate-1′-N-2,5-dihydroxybenzylamine]
% T/C U251 IP ([1]; 33.50 mg/kg/dose IP): 100% | % T/C U251 IP ([1]; 50.00 mg/kg/dose IP): >100% | % T/C U251 SC ([1]; 33.50 mg/kg/dose IP): >100% | % T/C U251 SC ([1]; 50.00 mg/kg/dose IP): >100% | % T/C NCI-H23 IP ([2]; 33.50 mg/kg/dose IP): 100% | % T/C NCI-H23 IP ([2]; 50.00 mg/kg/dose IP): >100% | % T/C NCI-H23 SC ([2]; 33.50 mg/kg/dose IP): >100% | % T/C NCI-H23 SC ([2]; 50.00 mg/kg/dose IP): >100% | % T/C OVCAR-5 IP ([3]; 33.50 mg/kg/dose IP): >100% | % T/C OVCAR-5 IP ([3]; 50.00 mg/kg/dose IP): 46% | % T/C OVCAR-5 SC ([3]; 33.50 mg/kg/dose IP): 87% | % T/C OVCAR-5 SC ([3]; 50.00 mg/kg/dose IP): 75% | % T/C SW-620 IP ([4]; 33.50 mg/kg/dose IP): >100% | % T/C SW-620 IP ([4]; 50.00 mg/kg/dose IP): >100% | % T/C SW-620 SC ([4]; 33.50 mg/kg/dose IP): 94% | % T/C SW-620 SC ([4]; 50.00 mg/kg/dose IP): 80% | % T/C MDA-MB-231 IP ([5]; 33.50 mg/kg/dose IP): >100% | % T/C MDA-MB-231 IP ([5]; 50.00 mg/kg/dose IP): >100% | % T/C MDA-MB-231 SC ([5]; 33.50 mg/kg/dose IP): 67% | % T/C MDA-MB-231 SC ([5]; 50.00 mg/kg/dose IP): 92% | % T/C MDA-MB-435 IP ([6]; 33.50 mg/kg/dose IP): >100% | % T/C MDA-MB-435 IP ([6]; 50.00 mg/kg/dose IP): 72% | % T/C MDA-MB-435 SC ([6]; 33.50 mg/kg/dose IP): 94% | % T/C MDA-MB-435 SC ([6]; 50.00 mg/kg/dose IP): 99% | % T/C SF-295 IP ([7]; 33.50 mg/kg/dose IP): >100% | % T/C SF-295 IP ([7]; 50.00 mg/kg/dose IP): 88% | % T/C SF-295 SC ([7]; 33.50 mg/kg/dose IP): >100% | % T/C SF-295 SC ([7]; 50.00 mg/kg/dose IP): 88% | % T/C NCI-H522 IP ([8]; 33.50 mg/kg/dose IP): 94% | % T/C NCI-H522 IP ([8]; 50.00 mg/kg/dose IP): 48% | % T/C NCI-H522 SC ([8]; 33.50 mg/kg/dose IP): 89% | % T/C NCI-H522 SC ([8]; 50.00 mg/kg/dose IP): 89% | % T/C UACC-62 IP ([9]; 33.50 mg/kg/dose IP): >100% | % T/C UACC-62 IP ([9]; 50.00 mg/kg/dose IP): >100% | % T/C UACC-62 SC ([9]; 33.50 mg/kg/dose IP): 99% | % T/C UACC-62 SC ([9]; 50.00 mg/kg/dose IP): 99%
